# Where a name gives a salt, the structure may show the parent alone.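 Exposure lasted 48 hours, with cells grown in 96-well plates and compounds tested at five concentrations. Abbreviation: GI50, concentration required for 50% inhibition of growth.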 Activity calls are given as the source filed them. No stated cut-off is given here; in the data, active = GI50 up to about 1.1 µM and inactive = higher.
# Experiments:
# Experiment in all cases: growth of human tumour cells (NCI), 48 h
# CCRF-CEM = test system: CCRF-CEM
# HCT-15 = test system: HCT-15
# HL-60 = test system: HL-60
# HOP-92 = test system: HOP-92
# HT-29 = test system: HT-29
# KM12 = test system: KM12
# LOX IMVI = test system: LOX IMVI
# NCI-H460 = test system: NCI-H460
# OVCAR-4 = test system: OVCAR-4
# OVCAR-5 = test system: OVCAR-5
# RXF 393 = test system: RXF 393
# SF-268 = test system: SF-268
# SF-295 = test system: SF-295
# SK-MEL-28 = test system: SK-MEL-28
# SK-OV-3 = test system: SK-OV-3
# SN12C = test system: SN12C
# SNB-19 = test system: SNB-19
# U-251 = test system: U-251
# UACC-257 = test system: UACC-257
# UO-31 = test system: UO-31
compound,measurement,setting,value
CNCCC=C1c2ccccc2CCc2ccccc21 [NORTRIPTYLINE HYDROCHLORIDE],GI50,CCRF-CEM,12.5 µM (inactive)
same,GI50,HCT-15,17.1 µM
same,GI50,HL-60,16.1 µM (inactive)
same,GI50,HOP-92,13.7 µM (inactive)
same,GI50,HT-29,4.69 µM (inactive)
same,GI50,KM12,12.2 µM (inactive)
same,GI50,LOX IMVI,13.2 µM (inactive)
same,GI50,NCI-H460,14.8 µM (inactive)
same,GI50,OVCAR-4,14 µM (inactive)
same,GI50,OVCAR-5,15.3 µM (inactive)
same,GI50,RXF 393,9.35 µM (inactive)
same,GI50,SF-268,15.5 µM (inactive)
same,GI50,SF-295,14.6 µM (inactive)
same,GI50,SK-MEL-28,13.5 µM (inactive)
same,GI50,SK-OV-3,12.6 µM (inactive)
same,GI50,SN12C,15.4 µM (inactive)
same,GI50,SNB-19,16.6 µM (inactive)
same,GI50,U-251,14.3 µM (inactive)
same,GI50,UACC-257,7.67 µM (inactive)
same,GI50,UO-31,6.14 µM (inactive)
